Source: article PMC2746433 (Biochemistry, 2009)
Read-outs that look alike come from different tables or passages of the source. Residues, ends and D or L forms follow the SMILES beside them. No end group written: not given here. fluorescein = fluorescein (label on the N-terminus)

T1: E. coli Exonuclease I (E. coli) (UniProt P04995)
T1 sequence: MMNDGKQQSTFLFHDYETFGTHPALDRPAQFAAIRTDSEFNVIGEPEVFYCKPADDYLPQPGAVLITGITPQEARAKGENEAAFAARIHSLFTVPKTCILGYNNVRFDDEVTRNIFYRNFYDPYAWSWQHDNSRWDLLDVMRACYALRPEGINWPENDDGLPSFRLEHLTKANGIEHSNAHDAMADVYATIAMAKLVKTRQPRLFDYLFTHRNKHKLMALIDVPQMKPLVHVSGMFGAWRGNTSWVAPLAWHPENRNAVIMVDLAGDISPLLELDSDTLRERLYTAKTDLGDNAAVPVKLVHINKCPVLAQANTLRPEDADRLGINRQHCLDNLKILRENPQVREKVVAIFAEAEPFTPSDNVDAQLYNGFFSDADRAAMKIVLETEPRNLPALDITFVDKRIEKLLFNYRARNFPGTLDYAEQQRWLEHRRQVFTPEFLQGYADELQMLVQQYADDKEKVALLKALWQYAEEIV

T2: E. coli Exonuclease I (E. coli, UniProt P04995 1-475)
T2 sequence (looked up): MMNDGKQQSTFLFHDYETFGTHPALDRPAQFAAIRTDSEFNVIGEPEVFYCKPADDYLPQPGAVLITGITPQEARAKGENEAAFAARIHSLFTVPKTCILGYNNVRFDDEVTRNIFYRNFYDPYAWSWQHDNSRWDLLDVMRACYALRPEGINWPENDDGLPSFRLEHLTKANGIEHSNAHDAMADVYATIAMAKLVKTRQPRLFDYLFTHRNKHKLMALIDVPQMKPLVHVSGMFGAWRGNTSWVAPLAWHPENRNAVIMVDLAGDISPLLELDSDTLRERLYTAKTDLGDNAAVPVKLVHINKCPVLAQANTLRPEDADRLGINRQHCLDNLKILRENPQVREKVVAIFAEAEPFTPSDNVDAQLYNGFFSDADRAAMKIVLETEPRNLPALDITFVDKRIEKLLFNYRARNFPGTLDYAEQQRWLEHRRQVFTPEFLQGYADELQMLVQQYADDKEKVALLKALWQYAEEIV


Assays:
[1] = molecular target: ExoI/SSB/ssDNA ternary complex (Escherichia coli, UniProt P04995); test: Exonuclease assay: inhibition of SSB-stimulated ExoI nuclease activity; format: biochemical, E. coli
E. coli ExoI = E. coli ExoI (Escherichia coli, UniProt P04995); test: Peptide competition-binding assay
[2] = molecular target: T1, E. coli Exonuclease I (E. coli); test: fluorescence polarisation
E. coli Exonuclease I [3] = molecular target: T2, E. coli Exonuclease I; test: fluorescence polarisation
E. coli Exonuclease I [4] = molecular target: T2, E. coli Exonuclease I
E. coli Exonuclease I [5] = molecular target: T2, E. coli Exonuclease I; test: fluorescence polarisation; remark: listed apart in the source

Molecule	IC50 [1] [µM]	IC50 (E. coli ExoI) [µM]	K_(bind) (apparent inhibitor dissociation constant) (E. coli Exonuclease I [5]) [µM]	other results
CC[C@H](C)[C@H](NC(=O)[C@@H](N)Cc1c[nH]c2ccccc12)C(=O)N1CCC[C@H]1C(=O)N[C@@H](Cc1ccccc1)C(=O)O [WIPF] (H-WIPF-OH)	> 100	252 ± 12		
SSB-Ct Phe-to-Tyr variant peptide …				IC50 [2]: 382 µM; K (bind) (apparent inhibitor dissociation constant) [2]: 79 µM
SSB-Ct Pro-to-Ser variant peptide …				IC50 [2]: 52.9 µM; K (bind) (apparent inhibitor dissociation constant) [2]: 10.8 µM
WDDDIPF [WDDDIPF]	~40			
WDDIPF [WDDIPF]	~40			
WDFDDDIPF [WDFDDDIPF]	~1			
WDIPF [WDIPF, Trp-Asp-Ile-Pro-Phe]	> 100			
WFDDDIPF [WFDDDIPF]	~10			
WMAFAAAIPF [WMAFAAAIPF]	~20	169 ± 15		
WMAFDDDIPF [WMAFDDDIPF]	~1	11.6 ± 0.9		
WMDFADDIPF [WMDFADDIPF]	~1	8.5 ± 0.3		
WMDFDADIPF [WMDFDADIPF]	~1	6.7 ± 0.3		
WMDFDDAIPF [WMDFDDAIPF]	~1	9.3 ± 0.3		
WMDFDDD [WMDFDDD]	~40	> 1000		
WMDFDDDI [WMDFDDDI]	~40	> 1000		
WMDFDDDIP [WMDFDDDIP]	~40	> 1000		
WMDFDDDIPF [WMDFDDDIPF, Trp-Met-Asp-Phe-Asp-Asp-Asp-Ile-Pro-Phe]	~1			
WMDFDDDIPY [WMDFDDDIPY]	~10	382 ± 41		
WMDFDDDISF [WMDFDDDISF]	~10	52.9 ± 3.5		
WIPF [SSB-Ct N-terminal truncation peptide WIPF]				K (bind) (apparent inhibitor dissociation constant) [2]: 52 µM
fluorescein-WMDFDDDIPF [F-SSB-Ct (SSB-Ct with an N-terminal fluorescein)]				Kd (E. coli Exonuclease I [3]): 0.261 ± 0.022 µM; Kd (E. coli Exonuclease I [4]): 0.178 ± 0.01 µM
WDDDIPF [SSB-Ct N-terminal truncation peptide WDDDIPF]			5.1 ± 0.8	IC50 (E. coli Exonuclease I [5]): 25.3 ± 0.9 µM
WDDIPF [SSB-Ct N-terminal truncation peptide WDDIPF]			6.8 ± 0.1	IC50 (E. coli Exonuclease I [5]): 33.5 ± 2.6 µM
WDIPF [SSB-Ct N-terminal truncation peptide WDIPF]			16.2 ± 0.6	IC50 (E. coli Exonuclease I [5]): 79.1 ± 2.9 µM
WMDFDDDIP [SSB-Ct C-terminal truncation peptide WMDFDDDIP]			> 200	
WMDFDDDI [SSB-Ct C-terminal truncation peptide WMDFDDDI]			> 200	
WMDFDDD [SSB-Ct C-terminal truncation peptide WMDFDDD]			> 200	
WMDFDDDIPF [SSB-Ct peptide WMDFDDDIPF (wild type)]			0.9 ± 0.1	IC50 (E. coli Exonuclease I [5]): 5.2 ± 0.2 µM
WDFDDDIPF [SSB-Ct N-terminal truncation peptide WDFDDDIPF]			0.7 ± 0.1	IC50 (E. coli Exonuclease I [5]): 4.3 ± 0.1 µM
WFDDDIPF [SSB-Ct N-terminal truncation peptide WFDDDIPF]			2.3 ± 0.1	IC50 (E. coli Exonuclease I [5]): 12.1 ± 0.7 µM
